Data reported in ChEMBL document CHEMBL5500418, “Structure-Activity Study on Substituted, Core-Extended, and Dyad Naphthalene Diimide G-Quadruplex Ligands Leading to Potent Antitrypanosomal Agents” (J Med Chem, 2024).

Tests used:
Trypanosoma brucei [1] = assay: Antitrypanosomal activity against Trypanosoma brucei; type: functional, organism-based
[2] = Cytotoxicity against human MRC5 cells incubated for 72 hrs by alamar blue staining based assay; type: toxicity, cell-based
Trypanosoma brucei [3] = assay: Antitrypanosomal activity against bloodstream-stage Trypanosoma brucei measured after 72 hrs by alamar blue assay; type: functional, organism-based
Leishmania major = assay: Antileishmanial activity against Leishmania major promastigotes MHOM/IL/80/Friedlin measured after 72 hrs by MTT assay; type: functional, organism-based
[4] = Selectivity index, ratio of IC50 for human MRC5 to IC50 for Trypanosoma brucei measured after 72 hrs by alamar blue assay; type: toxicity; conditions: MRC5 cells, read-out: Ratio IC50
[5] = Selectivity index, ratio of IC50 for human MRC5 to IC50 for Leishmania major measured after 72 hrs by MTT assay; type: toxicity; conditions: MRC5 cells, read-out: Ratio IC50
Quadruplex DNA [6] = assay: Stabilization of 22AG G4 DNA (unknown origin) assessed as change in melting temperature at 1 uM by FRET assay; type: nucleic-acid assay
Quadruplex DNA [7] = assay: Stabilization of Trypanosoma brucei ERB1 G4 DNA assessed as change in melting temperature at 1 uM by FRET assay; type: nucleic-acid assay
Quadruplex DNA [8] = assay: Stabilization of 22AG G4 DNA (unknown origin) assessed as change in melting temperature at 265 nm wavelength at 5 uM by CD spectroscopy; type: nucleic-acid assay
Quadruplex DNA [9] = assay: Stabilization of 22AG G4 DNA (unknown origin) assessed as change in melting temperature at 292 nm wavelength at 5 uM by CD spectroscopy; type: nucleic-acid assay
Quadruplex DNA [10] = assay: Stabilization of Trypanosoma brucei ERB1 G4 DNA assessed as change in melting temperature at 265 nm wavelength at 5 uM by CD spectroscopy; type: nucleic-acid assay
Quadruplex DNA [11] = assay: Stabilization of Trypanosoma brucei ERB1 G4 DNA assessed as change in melting temperature at 292 nm wavelength at 5 uM by CD spectroscopy; type: nucleic-acid assay
Trypanosoma brucei [12] = assay: Trypanocidal activity against bloodstream-stage Trypanosoma brucei measured after 72 hrs by CellTiter-Glo luminescent assay; type: functional, organism-based
[13] = Selectivity index, ratio of IC50 for human MRC5 to IC50 for Trypanosoma brucei measured after 72 hrs by CellTiter-Glo luminescent assay; type: toxicity; conditions: MRC5 cells, read-out: Ratio IC50
[14] = Drug uptake in human MRC5 cells at 4 to 37 degreeC at 5 uM after 30 to 120 mins by flow cytometry analysis; type: ADME, cell-based; conditions: mrc5, 5 µM, time 30-120 min
[15] = Drug uptake in Trypanosoma brucei at 4 to 37 degreeC at 5 uM after 30 to 120 mins by flow cytometry analysis; type: ADME; conditions: time 30-120 min
[16] = Drug localization in human MRC5 cells nucleus at 37 degreeC at 5 uM after 30 mins by DAPI staining based fluorescence microscopy analysis; type: ADME, subcellular; conditions: mrc5, 0.5 h
[17] = Drug localization in Trypanosoma brucei nucleus at 37 degreeC at 5 uM after 30 mins by DAPI staining based fluorescence microscopy analysis; type: ADME, subcellular; conditions: 0.5 h
[18] = Drug localization in human MRC5 cells cytoplasm at 37 degreeC at 5 uM after 30 mins by DAPI staining based fluorescence microscopy analysis; type: ADME, subcellular; conditions: mrc5, 0.5 h
[19] = Drug localization in Trypanosoma brucei kinetoplast at 37 degreeC at 5 uM after 30 mins by DAPI staining based fluorescence microscopy analysis; type: ADME, subcellular; conditions: 0.5 h
[20] = Drug localization in Trypanosoma brucei at 5 uM after 120 mins by DAPI staining based fluorescence microscopy analysis; type: ADME; conditions: 2 h

| SMILES | IC50 (Trypanosoma brucei [3]) [nM] | ΔTm (Quadruplex DNA [6]) [°C] | ΔTm (Quadruplex DNA [7]) [°C] | IC50 at 72 h [2] [nM] | IC50 (Leishmania major) [nM] | selectivity ratio at 72 h [4] | selectivity ratio at 72 h [5] | other results |
| --- | --- | --- | --- | --- | --- | --- | --- | --- |
| N=C(N)c1ccc(OCCCCCOc2ccc(C(=N)N)cc2)cc1 [PENTAMIDINE] |  |  |  |  |  |  |  | IC50 (Trypanosoma brucei [1]): 0.2 nM |
| CN(C)CCCN1C(=O)c2cc(NCCOCCOCCNc3cc4c5c(c(Br)cc6c5c3C(=O)N(CCCCCC(=O)O)C6=O)C(=O)N(CCCCCC(=O)O)C4=O)c3c4c(cc(Br)c(c24)C1=O)C(=O)N(CCCN(C)C)C3=O | 550 | 3.8 | 7.1 | 14000 | > 100000 | 25 | < 0.14 | ΔTm (Quadruplex DNA [8]): 4.9 °C; ΔTm (Quadruplex DNA [9]): -2.5 °C; ΔTm (Quadruplex DNA [10]): 5.2 °C; ΔTm (Quadruplex DNA [11]): 3.2 °C |
| O=C1c2ccc3c4c(ccc(c24)C(=O)N1CCOCCO)C(=O)N(CCOCCO)C3=O | 2500 | -2.2 | 1.3 | 14500 | 3760 | 5.8 | 3.85 |  |
| O=C1c2ccc3c4c(c(NCCOCCO)cc(c24)C(=O)N1CCOCCO)C(=O)N(CCOCCO)C3=O | 9500 | -1.4 | 2.9 | > 100000 | 14300 | > 10.5 | > 6.98 |  |
| CN(C)CCCn1c(=O)c2ccc3c(=O)n(CCCN(C)C)c(=O)c4c5[nH]c6ccccc6[nH]c5c(c1=O)c2c34 | 0.26 | 8.5 | > 30 | 23 | 2 | 88 | 11.5 | IC50 (Trypanosoma brucei [12]): 0.07 nM; selectivity ratio at 72 h [13]: 328; ΔTm (Quadruplex DNA [8]): 6.7 °C; ΔTm (Quadruplex DNA [9]): 3 °C; ΔTm (Quadruplex DNA [10]): 25.9 °C; ΔTm (Quadruplex DNA [11]): 23 °C; Drug uptake [14]: Active; Drug uptake [15]: 20% |
| CCCNc1cc2c3c(ccc4c3c1C(=O)N(CCCN(C)C)C4=O)C(=O)N(CCCN(C)C)C2=O |  | > 30 | 12 |  |  | 40 | 10.6 |  |
| CN(C)CCCNc1cc2c3c(c(NCCCCCCCNc4cc5c6c(ccc7c6c4C(=O)N(CCCN(C)C)C7=O)C(=O)N(CCCN(C)C)C5=O)cc4c3c1C(=O)N(CCCN(C)C)C4=O)C(=O)N(CCCN(C)C)C2=O | 8500 | 18.3 | > 30 | 66300 | > 100000 | 7.8 | < 0.66 |  |
| O=C1c2cc(NCCOCCO)c3c4c(cc(NCCOCCO)c(c24)C(=O)N1CCOCCO)C(=O)N(CCOCCO)C3=O | 42700 | 0.3 | 3.5 | > 100000 | > 100000 | > 2.3 |  |  |
| CCCNC(=O)c1ccc2[nH]c3c([nH]c2c1)c1c(=O)n(CCCN(C)C)c(=O)c2ccc4c(=O)n(CCCN(C)C)c(=O)c3c4c21 | 0.09 | > 30 | > 30 | 38 | 310 | 422 | 0.12 | IC50 (Trypanosoma brucei [12]): 0.011 nM; selectivity ratio at 72 h [13]: 3450; ΔTm (Quadruplex DNA [8]): > 30 °C; ΔTm (Quadruplex DNA [9]): 14.8 °C; ΔTm (Quadruplex DNA [10]): 22.7 °C; ΔTm (Quadruplex DNA [11]): 26 °C; Drug uptake [14]: Active; Drug uptake [15]: 20%; Drug uptake [16]: Active; Drug uptake [17]: Active; Drug uptake [18]: Not Active; Drug uptake [19]: Not Active; Drug uptake [20]: Active |
| CN(C)CCCN1C(=O)c2ccc3c4c(c(N5CCCCC5)cc(c24)C1=O)C(=O)N(CCCN(C)C)C3=O | 32 | 2.3 | 7.4 | 2600 | 170 | 81.3 | 15.3 |  |
| O=c1c2ccc3c(=O)n(CCOCCO)c(=O)c4c5[nH]c6ccccc6[nH]c5c(c(=O)n1CCOCCO)c2c34 | 290 | -2.2 | 2.1 | 1800 | > 100000 | 6.2 | < 0.018 | IC50 (Trypanosoma brucei [12]): 130 nM; selectivity ratio at 72 h [13]: 13.8 |
| CN(C)CCCNc1cc2c3c(c(NCCCN(C)C)cc4c3c1C(=O)N(CCCN(C)C)C4=O)C(=O)N(CCCN(C)C)C2=O | 54 | > 30 | > 30 | 2100 | 11800 | 38.9 | 0.18 |  |
| CN(C)CCCN1C(=O)c2ccc3c4c(c(NCCCO)cc(c24)C1=O)C(=O)N(CCCN(C)C)C3=O | 57 | 5 | 12 | 5000 | 2490 | 87.7 | 2 |  |

The next lines start with results.

| IC50 (Trypanosoma brucei [3]) [nM] | ΔTm (Quadruplex DNA [6]) [°C] | ΔTm (Quadruplex DNA [7]) [°C] | SMILES | IC50 at 72 h [2] [nM] | IC50 (Leishmania major) [nM] | selectivity ratio at 72 h [4] | selectivity ratio at 72 h [5] | other results |
| --- | --- | --- | --- | --- | --- | --- | --- | --- |
| 61 | 4.4 | 9.7 | COCCOCCNc1cc2c3c(ccc4c3c1C(=O)N(CCCN(C)C)C4=O)C(=O)N(CCCN(C)C)C2=O | 5000 | 4420 | 80.6 | 1.1 |  |
|  | 2.7 | 8.6 | CN(C)CCCN1C(=O)c2ccc3c4c(c(NCc5cn(CCO[C@@H]6O[C@H](CO)[C@@H](O)[C@H](O)[C@H]6O)nn5)cc(c24)C1=O)C(=O)N(CCCN(C)C)C3=O |  |  | 41.8 | 1.3 |  |
| 21500 | 9.6 | 19 | CN(C)CCCNc1cc2c3c(ccc4c3c1C(=O)N(CCCN(C)C)C4=O)C(=O)N(CCCN(C)C)C2=O | > 100000 | > 100000 | > 4.6 |  |  |
|  | 10 | 11 | CN(C)CCCN1C(=O)c2ccc3c4c(c(NCc5cn([C@@H]6O[C@H](CO)[C@@H](O)[C@H](O)[C@H]6O)nn5)cc(c24)C1=O)C(=O)N(CCCN(C)C)C3=O |  |  | 47.9 | 4.7 |  |
| 21 | 1.9 | 3.6 | CN(C)CCCNc1cc2c3c(c(N(C)C)cc4c3c1C(=O)N(CCCN(C)C)C4=O)C(=O)N(CCCN(C)C)C2=O | 7700 | 2960 | 367 | 2.6 | ΔTm (Quadruplex DNA [8]): 8.9 °C; ΔTm (Quadruplex DNA [9]): -1.4 °C; ΔTm (Quadruplex DNA [10]): 2.4 °C; ΔTm (Quadruplex DNA [11]): 2.7 °C; Drug uptake [15]: 0% |
| 15 | > 30 | 15 | CN(C)CCCN1C(=O)c2ccc3c4c(c(NCCCCCCCNc5cc6c7c(ccc8c7c5C(=O)N(CCCN(C)C)C8=O)C(=O)N(CCCN(C)C)C6=O)cc(c24)C1=O)C(=O)N(CCCN(C)C)C3=O | 62 | 2590 | 4 | 0.002 |  |
